Measurements: patent US20180370927A1, “MICROBIOCIDAL OXADIAZOLE DERIVATIVES” (SYNGENTA PARTICIPATIONS AG, priority 2015, published 2018)

Key:
[1] = system: Puccinia recondita f. Sp. Tritici; experiment: Puccinia recondita f. sp. tritici / wheat / leaf disc preventative (brown rust); format: in vivo; conditions: foliar, 200 ppm in the applied formulation, wheat leaf segments, preventative, assessed 7 to 9 days after application, read-out: disease control compared to untreated control leaf disks
Method in brief: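 Wheat cv. Kanzler leaf segments on agar sprayed with formulated compound in water, inoculated with rust spores 1 day later. Incubated at 19° C, 75% rh, 12 h light/12 h dark; percent disease control versus untreated scored 7 to 9 days after application; tested at 200 ppm.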

[2] = system: Puccinia recondita f. Sp. Tritici; experiment: Puccinia recondita f. sp. tritici / wheat / leaf disc curative (brown rust); format: in vivo; conditions: foliar, 200 ppm in the applied formulation, wheat leaf segments, curative (applied 1 day after inoculation), assessed 6 to 8 days after application, read-out: disease control compared to untreated control leaf disks
Method in brief: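 Curative treatment: formulated compound in water was applied 1 day post-inoculation to spore-inoculated wheat cv. Kanzler segments held on agar. Segments stayed at 19° C and 75% relative humidity (12 h photoperiod after application), and disease control relative to untreated checks was assessed 6 to 8 days later.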

Phakopsora pachyrhizi = Phakopsora pachyrhizi / soybean / leaf disc preventative (Asian soybean rust); format: in vivo; conditions: foliar, 200 ppm in the applied formulation, soybean leaf disks, assessed 12 to 14 days after application, read-out: disease control compared to untreated control leaf disks
Description: Leaf disks or leaf segments of various plant species are cut from plants grown in a greenhouse. The cut leaf disks or segments are placed in multiwell plates (24-well format) onto water agar. The leaf disks are sprayed with a test solution before (preventative) or after (curative) inoculation. Compounds to be tested are prepared as DMSO solutions (max. 10 mg/mL) which are diluted to the appropriate concentration with 0.025% Tween20 just before spraying. The inoculated leaf disks or segments are incubated under defined conditions (temperature, relative humidity, light, etc.) according to the respective test system. A single evaluation of disease level is carried out 3 to 14 days after inoculation, depending on the pathosystem. Percent disease control relative to the untreated check leaf disks or segments is then calculated.
Example 3: Fungicidal Activity Against Phakopsora pachyrhizi/Soybean/Leaf Disc Preventative (Asian Soybean Rust)
Soybean leaf disks are placed on water agar in multiwell plates (24-well format) and sprayed with the formulated test compound diluted in water. One day after application leaf discs are inoculated by spraying a spore suspension on the lower leaf surface. After an incubation period in a climate cabinet of 24-36 hours in darkness at 20° C. and 75% relative humidity leaf disc are kept at 20° C. with 12 hours light/day and 75% relative humidity. The activity of a compound is assessed as percent disease control compared to untreated when an appropriate level of disease damage appears in untreated check leaf disks (12 to 14 days after application).
The following compounds at 200 ppm in the applied formulation give at least 80% disease control in this test when compared to untreated control leaf disks under the same conditions, which show extensive disease development.

[3] = system: Glomerella lacenarium (Colletotrichum lacenarium); experiment: Glomerella lacenarium (Colletotrichum lacenarium) liquid culture / cucumber / preventative (anthracnose); format: cell-based; conditions: 20 ppm in the applied formulation, liquid culture in PDB, 24° C., 3 to 4 days after application, read-out: disease control (inhibition of growth, photometric) compared to untreated control
Method in brief: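 At 20 ppm in the applied formulation, compounds were mixed with fungal spores in potato dextrose broth and held at 24° C. After 3–4 days, photometric growth measurement gave percent antifungal activity relative to untreated control.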

CONC(=O)C(=O)NCc1ccc(-c2noc(C(F)(F)F)n2)cc1 [Compound 4.58, N′-methoxy-N-[[4-[5-(trifluoromethyl)-1,2,4-oxadiazol-3-yl]phenyl]methyl] oxamide]
≥ 80%: pest or weed control at 200 ppm [1] | pest or weed control at 200 ppm [2] | pest or weed control at 200 ppm (Phakopsora pachyrhizi) | inhibition at 20 ppm [3]

CC(C)N(Cc1ccc(-c2noc(C(F)(F)F)n2)cc1)C(=O)C(N)=O [Compound 4.89, N′-isopropyl-N′-[[4-[5-(trifluoromethyl)-1,2,4-oxadiazol-3-yl]phenyl]methyl] oxamide]
≥ 80%: pest or weed control at 200 ppm [1] | pest or weed control at 200 ppm [2] | pest or weed control at 200 ppm (Phakopsora pachyrhizi) | inhibition at 20 ppm [3]

CCCC(=O)C(=O)N(Cc1ccc(-c2noc(C(F)(F)F)n2)cc1)C1CC1 [Compound 1.4, N-cyclopropyl-2-oxo-N-[[4-[5-(trifluoromethyl)-1,2,4-oxadiazol-3-yl]phenyl]methyl]pentanamide]
≥ 80%: pest or weed control at 200 ppm [1] | pest or weed control at 200 ppm [2] | pest or weed control at 200 ppm (Phakopsora pachyrhizi) | inhibition at 20 ppm [3]

CO/N=C(\C)C(=O)N(Cc1ccc(-c2noc(C(F)(F)F)n2)cc1)OC [Compound 2.10, (2E)-N-methoxy-2-methoxyimino-N-[[4-[5-(trifluoromethyl)-1,2,4-oxadiazol-3-yl]phenyl]methyl] propanamide]
≥ 80%: pest or weed control at 200 ppm [1] | pest or weed control at 200 ppm [2] | pest or weed control at 200 ppm (Phakopsora pachyrhizi) | inhibition at 20 ppm [3]

CN(C(=O)C(=O)NCc1ccc(-c2noc(C(F)(F)F)n2)cc1)C1CCOC1 (stereo not shown) [Compound 4.41, N′-methyl-N′-tetrahydrofuran-3-yl-N-[[4-[5-(trifluoromethyl)-1,2,4-oxadiazol-3-yl]phenyl]methyl] oxamide]
≥ 80%: pest or weed control at 200 ppm [1] | pest or weed control at 200 ppm [2] | pest or weed control at 200 ppm (Phakopsora pachyrhizi) | inhibition at 20 ppm [3]

CON(Cc1ccc(-c2noc(C(F)(F)F)n2)cc1)C(=O)C(=O)c1cccs1 [Compound 1.73, N-methoxy-2-oxo-2-(2-thienyl)-N-[[4-[5-(trifluoromethyl)-1,2,4-oxadiazol-3-yl]phenyl]methyl]acetamide]
≥ 80%: pest or weed control at 200 ppm [1] | pest or weed control at 200 ppm (Phakopsora pachyrhizi) | inhibition at 20 ppm [3]

C=CCN(Cc1ccc(-c2noc(C(F)(F)F)n2)cc1)C(=O)C(C)=O [Compound 1.16, N-allyl-2-oxo-N-[[4-[5-(trifluoromethyl)-1,2,4-oxadiazol-3-yl]phenyl]methyl]propanamide]
≥ 80%: pest or weed control at 200 ppm [2] | pest or weed control at 200 ppm (Phakopsora pachyrhizi) | inhibition at 20 ppm [3]

CON(Cc1ccc(-c2noc(C(F)(F)F)n2)cc1F)C(=O)C(=O)c1ccccc1 [Compound 1.54, N-[[2-fluoro-4-[5-(trifluoromethyl)-1,2,4-oxadiazol-3-yl]phenyl]methyl]-N-methoxy-2-oxo-2-phenyl-acetamide]
≥ 80%: pest or weed control at 200 ppm [1] | pest or weed control at 200 ppm (Phakopsora pachyrhizi) | inhibition at 20 ppm [3]

O=C(NCc1ccc(-c2noc(C(F)(F)F)n2)c(F)c1F)C(=O)c1cccs1 [Compound 1.48, N-[[2,3-difluoro-4-[5-(trifluoromethyl)-1,2,4-oxadiazol-3-yl]phenyl]methyl]-2-oxo-2-(2-thienyl)acetamide]
≥ 80%: pest or weed control at 200 ppm [1] | pest or weed control at 200 ppm (Phakopsora pachyrhizi) | inhibition at 20 ppm [3]

O=C(NCc1ccc(-c2noc(C(F)(F)F)n2)cc1Cl)C(=O)c1ccco1 [Compound 1.84, N-[[2-chloro-4-[5-(trifluoromethyl)-1,2,4-oxadiazol-3-yl]phenyl]methyl]-2-(2-furyl)-2-oxo-acetamide]
≥ 80%: pest or weed control at 200 ppm [1] | pest or weed control at 200 ppm (Phakopsora pachyrhizi) | inhibition at 20 ppm [3]

O=C(NCc1ccc(-c2noc(C(F)(F)F)n2)cc1Cl)C(=O)c1cccs1 [Compound 1.62, N-[[2-chloro-4-[5-(trifluoromethyl)-1,2,4-oxadiazol-3-yl]phenyl]methyl]-2-oxo-2-(2-thienyl)acetamide]
≥ 80%: pest or weed control at 200 ppm [1] | pest or weed control at 200 ppm (Phakopsora pachyrhizi) | inhibition at 20 ppm [3]

CON(Cc1ccc(-c2noc(C(F)(F)F)n2)cc1F)C(=O)C(=O)C(C)(C)C [Compound 1.57, N-[[2-fluoro-4-[5-(trifluoromethyl)-1,2,4-oxadiazol-3-yl]phenyl]methyl]-N-methoxy-3,3-dimethyl-2-oxo-butanamide]
≥ 80%: pest or weed control at 200 ppm [1] | pest or weed control at 200 ppm (Phakopsora pachyrhizi) | inhibition at 20 ppm [3]

O=C(NCc1ccc(-c2noc(C(F)(F)F)n2)c(F)c1F)C(=O)c1ccccc1 [Compound 1.46, N-[[2,3-difluoro-4-[5-(trifluoromethyl)-1,2,4-oxadiazol-3-yl]phenyl]methyl]-2-oxo-2-phenyl-acetamide]
≥ 80%: pest or weed control at 200 ppm [1] | pest or weed control at 200 ppm (Phakopsora pachyrhizi) | inhibition at 20 ppm [3]

O=C(NCc1c(F)cc(-c2noc(C(F)(F)F)n2)cc1F)C(=O)c1ccccc1 [Compound 1.68, N-[[2,6-difluoro-4-[5-(trifluoromethyl)-1,2,4-oxadiazol-3-yl]phenyl]methyl]-2-oxo-2-phenyl-acetamide]
≥ 80%: pest or weed control at 200 ppm [1] | pest or weed control at 200 ppm (Phakopsora pachyrhizi) | inhibition at 20 ppm [3]

CCCCON(Cc1ccc(-c2noc(C(F)(F)F)n2)cc1)C(=O)C(N)=O [Compound 4.87, N′-butoxy-N′-[[4-[5-(trifluoromethyl)-1,2,4-oxadiazol-3-yl]phenyl]methyl] oxamide]
≥ 80%: pest or weed control at 200 ppm [1] | pest or weed control at 200 ppm (Phakopsora pachyrhizi) | inhibition at 20 ppm [3]

O=C(NCc1ccc(-c2noc(C(F)(F)F)n2)cc1Cl)C(=O)c1ccccc1 [Compound 1.59, N-[[2-chloro-4-[5-(trifluoromethyl)-1,2,4-oxadiazol-3-yl]phenyl]methyl]-2-oxo-2-phenyl-acetamide]
≥ 80%: pest or weed control at 200 ppm [1] | pest or weed control at 200 ppm (Phakopsora pachyrhizi) | inhibition at 20 ppm [3]

CON(Cc1ccc(-c2noc(C(F)(F)F)n2)cc1F)C(=O)C(=O)c1cccs1 [Compound 1.56, N-[[2-fluoro-4-[5-(trifluoromethyl)-1,2,4-oxadiazol-3-yl]phenyl]methyl]-N-methoxy-2-oxo-2-(2-thienyl)acetamide]
≥ 80%: pest or weed control at 200 ppm [1] | pest or weed control at 200 ppm (Phakopsora pachyrhizi) | inhibition at 20 ppm [3]

O=C(NCC1COCCO1)C(=O)Nc1ccc(-c2noc(C(F)(F)F)n2)cc1 (stereo not shown) [Compound 4.19, N-(1,4-dioxan-2-ylmethyl)-N′-[4-[5-(trifluoromethyl)-1,2,4-oxadiazol-3-yl]phenyl]oxamide]
≥ 80%: pest or weed control at 200 ppm [1] | pest or weed control at 200 ppm (Phakopsora pachyrhizi)

CC(C)(C)C(=O)C(=O)NCc1ccc(-c2noc(C(F)(F)F)n2)cc1Cl [Compound 1.63, N-[[2-chloro-4-[5-(trifluoromethyl)-1,2,4-oxadiazol-3-yl]phenyl]methyl]-3,3-dimethyl-2-oxo-butanamide]
≥ 80%: pest or weed control at 200 ppm [1] | pest or weed control at 200 ppm (Phakopsora pachyrhizi) | inhibition at 20 ppm [3]

O=C(NCc1ccc(-c2noc(C(F)(F)F)n2)c(F)c1)C(=O)c1ccccc1 [Compound 1.42, N-[[3-fluoro-4-[5-(trifluoromethyl)-1,2,4-oxadiazol-3-yl]phenyl]methyl]-2-oxo-2-phenyl-acetamide]
≥ 80%: pest or weed control at 200 ppm [1] | pest or weed control at 200 ppm (Phakopsora pachyrhizi) | inhibition at 20 ppm [3]
